Here are results for 27 compounds from ChEMBL document CHEMBL4371011, “Pyrrolone Derivatives as Intracellular Allosteric Modulators for Chemokine Receptors: Selective and Dual-Targeting Inhibitors of CC Chemokine Receptors 1 and 2” (J Med Chem, 2018).

Experiment [1] deals with T1, C-C chemokine receptor type 2 (Homo sapiens, UniProt P41597). Kind of experiment: Displacement of [3H]-CCR2-RA-[R] from human TEV protease site linked CCR2b expressed in human U20S cell membranes co-expressing Gal4-VP16 transcription factor after 120 mins by scintillation spectrometry.
Target sequence in this assay (P41597 whole entry, the tested form may be a part): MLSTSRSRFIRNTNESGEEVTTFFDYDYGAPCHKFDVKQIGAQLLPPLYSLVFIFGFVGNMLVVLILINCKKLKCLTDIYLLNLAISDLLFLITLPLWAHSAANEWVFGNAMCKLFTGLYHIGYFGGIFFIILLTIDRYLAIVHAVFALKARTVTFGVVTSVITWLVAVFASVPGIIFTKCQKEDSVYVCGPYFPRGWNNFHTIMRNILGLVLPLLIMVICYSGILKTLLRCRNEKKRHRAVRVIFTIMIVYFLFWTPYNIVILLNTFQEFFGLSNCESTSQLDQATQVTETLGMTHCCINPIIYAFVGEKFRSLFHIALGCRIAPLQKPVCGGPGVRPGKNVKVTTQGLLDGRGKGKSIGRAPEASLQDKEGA
Experiment [2] has as its target T2, C-C chemokine receptor type 1 (Homo sapiens, UniProt P32246).
T2 sequence (P32246 whole entry): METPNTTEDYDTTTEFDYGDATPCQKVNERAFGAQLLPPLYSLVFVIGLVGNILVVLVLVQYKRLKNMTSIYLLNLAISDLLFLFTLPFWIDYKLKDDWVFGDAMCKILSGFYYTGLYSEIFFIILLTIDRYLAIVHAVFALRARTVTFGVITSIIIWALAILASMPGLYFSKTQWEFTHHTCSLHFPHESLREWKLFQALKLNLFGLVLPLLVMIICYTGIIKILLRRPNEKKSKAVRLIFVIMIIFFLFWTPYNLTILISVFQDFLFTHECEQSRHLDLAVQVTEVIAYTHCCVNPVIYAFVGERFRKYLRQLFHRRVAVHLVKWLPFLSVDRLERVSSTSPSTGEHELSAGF
Kind of experiment: biochemical.

For experiment [3], the target named is T1, C-C chemokine receptor type 2. Kind of experiment: Displacement of [3H]-CCR2-RA-[R] from human TEV protease site linked CCR2b expressed in human U20S cell membranes co-expressing Gal4-VP16 transcription factor at 1 uM after 120 mins by scintillation spectrometry relative to control. (In general: In a radioligand displacement assay an active substance lowers the binding of a labelled ligand.)
Target sequence in this assay (P41597 whole entry, looked up, the tested form may be a part): as the sequence (P41597 whole entry, the tested form may be a part) above

The structures appear in SMILES notation. Several values for one entry are separate records, joined by “and”; a condition that tells them apart may be missing. Equal values may be shown once.

With `CCc1ccc(N2C(=O)C(O)=C(C(C)=O)C2C2CCCCC2)cc1` (stereo not given), the Ki in experiment [1] (read-out: Ki) was 66 nM; in experiment [1] (read-out: pKi (converted)) it was 64.6 nM; in experiment [2] it was 168 nM.

In general, inhibition refers to how much of the control response was suppressed. Read a high inhibition as a response far below the control. In the case of `Cc1ccc(N2C(=O)C(O)=C(C(=O)c3ccccc3)C2C2CCCCC2)cc1` (stereo not given), in experiment [2], the Ki came to 77 nM. For the same compound, the inhibition in experiment [3] came to 37%.

Consider `CC(=O)C1=C(O)C(=O)N(c2ccc(C)cc2)C1c1ccc(Br)cc1` (stereo not given), for which the Ki is 214 nM in experiment [1] (read-out: Ki); 85.1 nM and 87 nM in experiment [2].

In the case of `Cc1ccc(N2C(=O)C(O)=C(C(=O)C(C)C)C2C2CCCCC2)cc1` (stereo not given), the Ki was 316 nM in experiment [1] (read-out: Ki); 40.7 nM and 42 nM in experiment [2].

As for `CC(=O)C1=C(O)C(=O)N(c2ccc(C)cc2)C1c1ccc(C)cc1` (stereo not given), the Ki in experiment [2] is 195 nM and 198 nM. Moreover, the inhibition in experiment [3] was determined as 36%.

As to `CC(=O)C1=C(O)C(=O)N(c2cccc(Cl)c2)C1C1CCCCC1` (stereo not given), the Ki in experiment [1] (read-out: Ki) was 239 nM; in experiment [2], 525 nM and 541 nM.

For the compound `CC(=O)C1=C(O)C(=O)N(c2ccc(C)cc2)C1c1ccc(Cl)cc1` (stereo not given), the values for the Ki in experiment [1] (read-out: Ki) and in experiment [2] were 207 nM and 67 nM, respectively.

Regarding `COc1ccc(N2C(=O)C(O)=C(C(C)=O)C2C2CCCCC2)cc1` (stereo not given), the Ki is 217 nM in experiment [1] (read-out: Ki), 214 nM in experiment [1] (read-out: pKi (converted)) and 260 nM in experiment [2].

For `CCCCC(=O)C1=C(O)C(=O)N(c2ccc(C)cc2)C1C1CCCCC1` (stereo not given), the Ki in experiment [1] (read-out: Ki) is 158 nM; in experiment [1] (read-out: pKi (converted)), 155 nM; in experiment [2] it was 31 nM.

For `CC(=O)C1=C(O)C(=O)N(c2ccc(C)cc2)C1c1ccccc1` (stereo not given), in experiment [2], the Ki came to 162 nM. Moreover, the inhibition in experiment [3] came to 39%.

Regarding `CC(=O)C1=C(O)C(=O)N(c2ccc(C)cc2)C1C1CCCCC1` (stereo not given), the Ki was found to be 81 nM in experiment [1] (read-out: Ki) and 56 nM in experiment [2].

Regarding `CC(=O)C1=C(O)C(=O)N(c2ccc(C)cc2F)C1C1CCCCC1` (stereo not given), the Ki in experiment [1] (read-out: Ki) was 37 nM; in experiment [2], 27.5 nM and 29 nM.

Regarding `CC(=O)C1=C(O)C(=O)N(c2ccc(Br)cc2F)C1c1cccc(Br)c1` (stereo not given), the Ki in experiment [1] (read-out: Ki) is 216 nM; in experiment [2], 65 nM.

Consider `Cc1ccc(N2C(=O)C(O)=C(C(=O)C3CC3)C2C2CCCCC2)cc1` (stereo not given), for which the Ki is 160 nM in experiment [1] (read-out: Ki); 18.2 nM and 19 nM in experiment [2].

`CC(=O)C1=C(O)C(=O)N(c2ccc(C)cc2)C1c1cccc(Cl)c1` (stereo not given): in experiment [2], the Ki was 198 nM. Further, the inhibition in experiment [3] worked out at 19%.

`CC(=O)C1=C(O)C(=O)N(c2ccc(C(F)(F)F)cc2)C1C1CCCCC1` (stereo not given): the Ki was 92 nM in experiment [1] (read-out: Ki); 138 nM and 144 nM in experiment [2].

As to `CC(=O)C1=C(O)C(=O)N(c2ccc(Br)cc2)C1C1CCCCC1` (stereo not given), the Ki in experiment [1] (read-out: Ki) worked out at 17 nM; in experiment [2], 24 nM.

On to `Cc1ccc(N2C(=O)C(O)=C(C(=O)C(C)(C)C)C2C2CCCCC2)cc1` (stereo not given), for which the Ki in experiment [1] (read-out: Ki) was 158 nM; in experiment [1] (read-out: pKi (converted)), 155 nM; in experiment [2] it was 22 nM.

`CC(=O)C1=C(O)C(=O)N(c2ccc(C)cc2)C1C1CCCCCCC1` (stereo not given): the figures for the Ki in experiment [1] (read-out: Ki), in experiment [1] (read-out: pKi (converted)) and in experiment [2] were 170 nM, 162 nM and 57 nM, respectively.

Turning to `CC(=O)C1=C(O)C(=O)N(c2cccc(C)c2)C1C1CCCCC1` (stereo not given), the Ki was 265 nM in experiment [1] (read-out: Ki) and 500 nM in experiment [2].

Regarding `CC(=O)C1=C(O)C(=O)N(c2ccc(C)cc2)C1C1CCCCCC1` (stereo not given), the Ki is 96 nM in experiment [1] (read-out: Ki) and 56 nM in experiment [2].

As for `CCCC(=O)C1=C(O)C(=O)N(c2ccc(C)cc2)C1C1CCCCC1` (stereo not given), the Ki in experiment [1] (read-out: Ki) was 144 nM; in experiment [1] (read-out: pKi (converted)), 138 nM; in experiment [2], 29 nM.

In the case of `CCC(=O)C1=C(O)C(=O)N(c2ccc(C)cc2)C1C1CCCCC1` (stereo not given), the Ki in experiment [1] (read-out: Ki) was found to be 104 nM; in experiment [2] it was 30 nM.

Take `CC(=O)C1=C(O)C(=O)N(c2ccc(Cl)cc2)C1C1CCCCC1` (stereo not given): the Ki in experiment [1] (read-out: Ki) is 19 nM; in experiment [2] it was 38.9 nM and 40 nM.

On to `CC(=O)C1=C(O)C(=O)N(c2ccc(C)c(F)c2)C1C1CCCCC1` (stereo not given), for which the Ki is 57 nM in experiment [1] (read-out: Ki); 47.9 nM and 49 nM in experiment [2].

Consider `CC(=O)C1=C(O)C(=O)N(c2ccc(C)c(C)c2)C1C1CCCCC1` (stereo not given), for which the Ki in experiment [1] (read-out: Ki) was determined as 18 nM; in experiment [2], 43 nM.

Take `O=C(C1=C(O)C(=O)N(c2ccc(Br)cc2F)C1C1CCCCC1)c1ccccc1` (stereo not given): the Ki in experiment [1] (read-out: Ki) came to 66 nM; in experiment [2], 28 nM.
